The target in assay [1] is T1, Tyrosine-protein kinase ABL1 (Homo sapiens, UniProt P00519). In words: Displacement of CAT-1 from catalytic site of N-terminal His6-tagged ABL (83 to 534 residues) (unknown origin) expressed in Escherichia coli co-expressing Protein Tyrosine Phosphatase 1b at 25 and 50 uM by 19F NMR spectroscopy based dual-site competition assay.
In assay [2] the target is T1, Tyrosine-protein kinase ABL1. Briefly: Displacement of ALLO-1 from allosteric site of N-terminal His6-tagged ABL (83 to 534 residues) (unknown origin) expressed in Escherichia coli co-expressing Protein Tyrosine Phosphatase 1b at 25 to 250 uM by 19F NMR spectroscopy based dual-site competition assay.
The target is the same in assay [3]. In words: Displacement of CAT-1 from catalytic site of N-terminal His6-tagged ABL (83 to 534 residues) (unknown origin) expressed in Escherichia coli co-expressing Protein Tyrosine Phosphatase 1b at 25 to 250 uM by 19F NMR spectroscopy based dual-site competition assay.
The target is the same in assay [4]. Briefly: Binding affinity to allosteric site of N-terminal His6-tagged ABL (83 to 534 residues) (unknown origin) expressed in Escherichia coli co-expressing Protein Tyrosine Phosphatase 1b at 25 uM in presence of ABL001.
Assay [5] shares this target. Briefly: Binding affinity to catalytic site of N-terminal His6-tagged ABL (83 to 534 residues) (unknown origin) expressed in Escherichia coli co-expressing Protein Tyrosine Phosphatase 1b by NMR spectroscopy based dual-site competition assay.

Each structure is given as a SMILES string. The source made the active and inactive calls. The rule behind the calls is not given here.

As usually defined, the Kd is a measure of binding affinity in units of concentration.

T1 sequence (P00519 whole entry, the tested form may be a part): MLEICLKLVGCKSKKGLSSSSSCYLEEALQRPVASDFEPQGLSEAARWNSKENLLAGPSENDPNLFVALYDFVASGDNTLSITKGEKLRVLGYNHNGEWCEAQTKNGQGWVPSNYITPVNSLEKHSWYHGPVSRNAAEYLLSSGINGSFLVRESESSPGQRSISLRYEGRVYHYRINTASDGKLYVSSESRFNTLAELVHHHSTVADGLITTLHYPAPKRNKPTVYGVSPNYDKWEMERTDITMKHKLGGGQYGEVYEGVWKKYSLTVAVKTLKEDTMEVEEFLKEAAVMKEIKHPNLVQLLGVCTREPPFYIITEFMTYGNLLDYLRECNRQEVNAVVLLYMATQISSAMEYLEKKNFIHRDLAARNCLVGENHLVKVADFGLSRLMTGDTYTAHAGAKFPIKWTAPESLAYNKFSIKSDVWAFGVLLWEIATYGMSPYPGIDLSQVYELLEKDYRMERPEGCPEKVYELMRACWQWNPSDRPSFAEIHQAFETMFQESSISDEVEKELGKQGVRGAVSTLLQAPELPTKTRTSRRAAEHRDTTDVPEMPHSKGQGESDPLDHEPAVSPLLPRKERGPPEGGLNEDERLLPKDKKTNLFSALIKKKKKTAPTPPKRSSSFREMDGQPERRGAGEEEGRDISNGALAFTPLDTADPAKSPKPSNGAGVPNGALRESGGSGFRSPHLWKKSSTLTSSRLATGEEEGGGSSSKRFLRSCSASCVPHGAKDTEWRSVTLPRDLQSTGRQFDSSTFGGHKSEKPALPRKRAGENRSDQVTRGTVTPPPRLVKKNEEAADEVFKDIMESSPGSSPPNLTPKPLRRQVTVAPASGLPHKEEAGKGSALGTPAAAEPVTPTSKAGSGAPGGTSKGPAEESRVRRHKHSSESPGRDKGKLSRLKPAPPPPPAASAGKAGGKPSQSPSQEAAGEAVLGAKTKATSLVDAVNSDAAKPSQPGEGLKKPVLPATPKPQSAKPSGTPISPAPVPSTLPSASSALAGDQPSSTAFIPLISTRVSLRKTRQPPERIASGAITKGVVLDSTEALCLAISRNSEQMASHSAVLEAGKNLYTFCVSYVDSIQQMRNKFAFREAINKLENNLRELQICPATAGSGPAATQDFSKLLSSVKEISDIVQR

As for `FC(F)(F)Oc1ccc(Nc2ccncn2)cc1`, the inhibition result in assay [1] was “inactive”. In addition, the inhibition entry in assay [2] and in assay [3] was “Active” each time.
Consider `NC(=O)C1CCN(c2ccc(C(F)(F)F)cn2)CC1`, for which, in assay [4], the result was Active. Also, in assay [5], the affinity, expressed as Kd, was 43 µM.
